Consider 30 compounds from patent US9284321B2, “Piperazino[1,2-a]indol-1-ones and [1,4]diazepino[1,2-a]indol-1-one” (Hoffmann-La Roche Inc., priority 2012, dated 2016).

The subject of data set [1] is human embryonic stem cell derived neural stem cells (NSCs). The data set can be described thus: Neural Stem Cell Proliferation Assay (neurogenesis assay, ATP levels by CellTiterGlo). It counts as cell-based. The note with it: 96 h, compound concentration at which 150% activity of control (100%) is reached, NSC proliferation by ATP level after 4 days incubation, dose response 8 μM to 8 nM. Here is the method:
Neurogenic properties of small molecules are determined based on the proliferation of human embryonic stem cell derived neural stem cells (NSCs) which were derived via a dual smad inhibition as previously described (Chambers, S. M., et al., Highly efficient neural conversion of human ES and iPS cells by dual inhibition of SMAD signaling, Nature biotechnology, 2009. 27(3): p. 275-80.)
Compounds respond is measured by the increase in cells based on ATP levels
(Promega:CellTiterGlo®) after an incubation period of 4 days.
NSCs are thawed and expanded over 3 passages. On the 14th day, NSCs are seeded in Polyornithin/Laminin coated 384 well plates at a cell density of 21′000 cells/cm^2 in a media volume of 38 μl.
4 hours after cell seeding, compound solutions are added at a volume of 2 μl. Stock solutions of the compounds (water, 5% DMSO) are diluted to obtain a dose response (11 points, dilution factor is 2), ranging from 8 μM to 8 nM. Controls are run to consistently determine the neurogenic properties of the cells:
Negative (neutral) control is cell culture Media (final DMSO concentration: 0.25%).
• 1. cell culture Media+100 ng/ml FGF2 (final DMSO concentration: 0.1%) • 2. cell culture Media+20 ng/ml EGF (final DMSO concentration: 0.1%) • 3. cell culture Media+100 ng/ml Wnt3a (final DMSO concentration: 0.1%)
After 4 days incubation at 37° C., 5% CO2, the amount of ATP per well is quantified. The ATP concentration is proportional to the cell number. ATP is quantified by using the Promega CellTiterGlo® kit. The CellTiterGlo® reagents contain a cell lysis buffer, a thermo stable luciferase (UltraGlo™ recombinant luciferase), magnesium and luciferin. Luciferin reacts with ATP producing oxyluciferin, AMP and light. The luminescence signal is proportional to the ATP content.
The value of negative (neutral) control is determined for each assay plate by taking the average of 16 negative control wells. The neurogenic compound response is calculated for each compound as (compound/Negative Control)*100.
The values of EC150 from the dose response curve are determined for each test compound. The EC150 is the compound concentration at which 150% activity of control (100%) is reached.
On the technique in general: Cellular ATP, detected with luciferase, serves as a proxy for viable cell number.

As usually defined, the melting point is the temperature of the solid-liquid transition.

As to `CC1CCNC(=O)c2cc3cc(F)cc(-c4ccccc4)c3n21` (racemic) [Example 26, (RS)-9-Fluoro-5-methyl-7-phenyl-2,3,4,5-tetrahydro-[1,4]diazepino[1,2-a]indol-1-one], the melting point was 232.5 °C. In data set [1], this compound returned an EC (150% of control) of 0.24 µM.

As to `CC1CCNC(=O)c2cc3cc(F)cc(-c4ccc(F)cc4)c3n21` (racemic) [Example 27, (RS)-9-Fluoro-7-(4-fluoro-phenyl)-5-methyl-2,3,4,5-tetrahydro-[1,4]diazepino[1,2-a]indol-1-one], the melting point was 235.5 °C. The EC (150% of control) in data set [1] was found to be 0.18 µM.

`C[C@@H]1CNC(=O)c2cc3cccc(-c4ccccc4)c3n21` [Example 1, (R)-4-Methyl-6-phenyl-3,4-dihydro-2H-pyrazino[1,2-a]indol-1-one] registered a melting point of 239 °C. In addition, in data set [1], the EC (150% of control) is 3.97 µM.

For `COc1ccc(-c2cccc3cc4n(c23)[C@H](C)CNC4=O)cc1` [Example 2, (R)-6-(4-Methoxy-phenyl)-4-methyl-3,4-dihydro-2H-pyrazino[1,2-a]indol-1-one], the melting point was found to be 247 °C. This compound also had an EC (150% of control) in data set [1] of 0.85 µM.

Take `C[C@@H]1CNC(=O)c2cc3cccc(-c4ccncc4)c3n21` [Example 3, (R)-4-Methyl-6-pyridin-4-yl-3,4-dihydro-2H-pyrazino[1,2-a]indol-1-one]: the melting point stood at 264 °C. The compound further returned an EC (150% of control) in data set [1] of 2.31 µM.

`C[C@@H]1CNC(=O)c2cc3cc(F)cc(-c4ccccc4)c3n21` [Example 4, (R)-8-Fluoro-4-methyl-6-phenyl-3,4-dihydro-2H-pyrazino[1,2-a]indol-1-one] came in with a melting point of 243.5 °C. Also, in data set [1], the EC (150% of control) is 0.37 µM.

The compound `COc1ccc(-c2cc(F)cc3cc4n(c23)[C@H](C)CNC4=O)cc1` [Example 5, (R)-8-Fluoro-6-(4-methoxy-phenyl)-4-methyl-3,4-dihydro-2H-pyrazino[1,2-a]indol-1-one] gave a melting point of 228.5 °C. For the same compound, the EC (150% of control) in data set [1] came to 0.034 µM.

For the compound `C[C@@H]1CNC(=O)c2cc3cc(F)cc(-c4ccc(F)cc4)c3n21` [Example 6, (R)-8-Fluoro-6-(4-fluoro-phenyl)-4-methyl-3,4-dihydro-2H-pyrazino[1,2-a]indol-1-one], the melting point was 276 °C. Besides, the EC (150% of control) in data set [1] amounted to 0.22 µM.

Take `C[C@@H]1CNC(=O)c2cc3cc(F)cc(-c4ccncc4)c3n21` [Example 7, (R)-8-Fluoro-4-methyl-6-pyridin-4-yl-3,4-dihydro-2H-pyrazino[1,2-a]indol-1-one]: the melting point is 294.5 °C. The compound further returned an EC (150% of control) in data set [1] of 0.4 µM.

The compound `Cc1ccc(-c2cc(F)cc3cc4n(c23)[C@H](C)CNC4=O)cc1` [Example 8, (R)-8-Fluoro-4-methyl-6-p-tolyl-3,4-dihydro-2H-pyrazino[1,2-a]indol-1-one] registered a melting point of 294.5 °C. This compound returned an EC (150% of control) in data set [1] of 0.048 µM.

As to `C[C@@H]1CNC(=O)c2cc3cc(F)cc(-c4cc(F)cc(F)c4)c3n21` [Example 9, (R)-6-(3,5-Difluoro-phenyl)-8-fluoro-4-methyl-3,4-dihydro-2H-pyrazino[1,2-a]indol-1-one], the melting point amounted to 229.5 °C. The compound also displayed an EC (150% of control) in data set [1] of 0.37 µM.

`C[C@@H]1CNC(=O)c2cc3cc(F)cc(-c4ccc(F)c(F)c4)c3n21` [Example 10, (R)-6-(3,4-Difluoro-phenyl)-8-fluoro-4-methyl-3,4-dihydro-2H-pyrazino[1,2-a]indol-1-one]: the melting point stood at 267 °C. The compound also had an EC (150% of control) in data set [1] of 0.22 µM.

`C[C@@H]1CNC(=O)c2cc3cc(F)cc(-c4ccc(Cl)cc4)c3n21` [Example 11, (R)-6-(4-Chloro-phenyl)-8-fluoro-4-methyl-3,4-dihydro-2H-pyrazino[1,2-a]indol-1-one] showed a melting point of 282.5 °C. The compound also showed an EC (150% of control) in data set [1] of 0.1 µM.

`O=C1NCCn2c1cc1cc(F)cc(-c3ccccc3)c12` [Example 12, 8-Fluoro-6-phenyl-3,4-dihydro-2H-pyrazino[1,2-a]indol-1-one]: the melting point is 236.5 °C. In data set [1], this compound showed an EC (150% of control) of 0.037 µM.

Regarding `C[C@@H]1CNC(=O)c2cc3cc(F)cc(-c4ccc(C(F)(F)F)cc4)c3n21` [Example 13, (R)-8-Fluoro-4-methyl-6-(4-trifluoromethyl-phenyl)-3,4-dihydro-2H-pyrazino[1,2-a]indol-1-one], the melting point was 307 °C. Further, in data set [1], the EC (150% of control) was determined as 0.16 µM.

As for `C[C@@H]1CNC(=O)c2cc3cc(F)cc(-c4cccc(F)c4)c3n21` [Example 14, (R)-8-Fluoro-6-(3-fluoro-phenyl)-4-methyl-3,4-dihydro-2H-pyrazino[1,2-a]indol-1-one], the melting point turned out to be 232 °C. This compound also returned an EC (150% of control) in data set [1] of 0.34 µM.

The compound `O=C1NCCCn2c1cc1cc(F)cc(-c3ccccc3)c12` [Example 15, 9-Fluoro-7-phenyl-2,3,4,5-tetrahydro-[1,4]diazepino[1,2-a]indol-1-one] showed a melting point of 277 °C. Also, the EC (150% of control) in data set [1] stood at 0.084 µM.

For the compound `COc1ccc(-c2cc(F)cc3cc4n(c23)CCCNC4=O)cc1` [Example 16, 9-Fluoro-7-(4-methoxy-phenyl)-2,3,4,5-tetrahydro-[1,4]diazepino[1,2-a]indol-1-one], the melting point is 225.5 °C. Moreover, the EC (150% of control) in data set [1] is 0.009 µM.

Turning to `Cc1c2n(c3c(-c4ccc(Cl)nc4)cc(F)cc13)CCNC2=O` [Example 144, 6-(6-Chloro-pyridin-3-yl)-8-fluoro-10-methyl-3,4-dihydro-2H-pyrazino[1,2-a]indol-1-one], the EC (150% of control) in data set [1] was found to be 0.081 µM.

In turn, `N#Cc1cc(-c2ccc(Cl)c(C(F)(F)F)c2)c2c(c1)cc1n2CCCNC1=O` [Example 254, 7-[4-Chloro-3-(trifluoromethyl)phenyl]-1-oxo-2,3,4,5-tetrahydro-[1,4]diazepino[1,2-a]indole-9-carbonitrile] displayed a melting point of 224.5 °C.

`N#Cc1cc(-c2cccnc2)c2c(c1)cc1n2CCCNC1=O` [Example 263, 1-Oxo-7-pyridin-3-yl-2,3,4,5-tetrahydro-[1,4]diazepino[1,2-a]indole-9-carbonitrile] registered a melting point of 252 °C.

On to `N#Cc1cc(-c2ccc(N)nc2)c2c(c1)cc1n2CCCNC1=O` [Example 264, 7-(6-Aminopyridin-3-yl)-1-oxo-2,3,4,5-tetrahydro-[1,4]diazepino[1,2-a]indole-9-carbonitrile], for which the melting point came out at 314.5 °C.

For the compound `N#Cc1cc(-c2ccc(Cl)nc2)c2c(c1)cc1n2CCCNC1=O` [Example 265, 7-(6-Chloropyridin-3-yl)-1-oxo-2,3,4,5-tetrahydro-[1,4]diazepino[1,2-a]indole-9-carbonitrile], the melting point was 204 °C.

Compound `Cc1c2n(c3c(-c4cccc(Cl)c4)cc(C#N)cc13)CCNC2=O` [Example 268, 6-(3-Chlorophenyl)-10-methyl-1-oxo-3,4-dihydro-2H-pyrazino[1,2-a]indole-8-carbonitrile] had a melting point of 254 °C.

Consider `CC(C)(C)c1ccc(-c2cc(C#N)cc3cc4n(c23)CCCNC4=O)cc1` [Example 270, 7-(4-tert-Butylphenyl)-1-oxo-2,3,4,5-tetrahydro-[1,4]diazepino[1,2-a]indole-9-carbonitrile], for which the melting point came out at 215 °C.

With `N#Cc1cc(-c2ccc(F)nc2)c2c(c1)cc1n2CCCNC1=O` [Example 272, 7-(6-Fluoropyridin-3-yl)-1-oxo-2,3,4,5-tetrahydro-[1,4]diazepino[1,2-a]indole-9-carbonitrile], the melting point was 264.5 °C.

As for `N#Cc1cc(-c2cncnc2)c2c(c1)cc1n2CCCNC1=O` [Example 273, 1-Oxo-7-pyrimidin-5-yl-2,3,4,5-tetrahydro-[1,4]diazepino[1,2-a]indole-9-carbonitrile], the melting point is 277 °C.

`N#Cc1cc(-c2cc(Cl)cc(Cl)c2)c2c(c1)cc1n2CCCNC1=O` [Example 286, 7-(3,5-Dichlorophenyl)-1-oxo-2,3,4,5-tetrahydro-[1,4]diazepino[1,2-a]indole-9-carbonitrile]: the melting point was found to be 244 °C.

With `Cc1c2n(c3c(-c4cc(Cl)cc(Cl)c4)cc(C#N)cc13)CCNC2=O` [Example 293, 6-(3,5-Dichlorophenyl)-10-methyl-1-oxo-3,4-dihydro-2H-pyrazino[1,2-a]indole-8-carbonitrile], the melting point was found to be 347 °C.

In turn, `Cc1c2n(c3c(-c4cncnc4)cc(C#N)cc13)CCCNC2=O` [Example 299, 11-Methyl-1-oxo-7-pyrimidin-5-yl-2,3,4,5-tetrahydro-[1,4]diazepino[1,2-a]indole-9-carbonitrile] displayed a melting point of 304 °C.
